Assay results: ChEMBL document CHEMBL4052767, “Discovery of a potent angiotensin converting enzyme inhibitor via virtual screening” (Bioorg Med Chem Lett, 2017)

target: Angiotensin-converting enzyme (Homo sapiens) (UniProt P12821); experiment: Inhibition of recombinant human ACE at 100 uM using Mca-R-P-PG-F-S-A-F-K(Dnp)-OH as substrate measured every 2 mins for 8 mins by fluorescence assay
Sequence (P12821 whole entry): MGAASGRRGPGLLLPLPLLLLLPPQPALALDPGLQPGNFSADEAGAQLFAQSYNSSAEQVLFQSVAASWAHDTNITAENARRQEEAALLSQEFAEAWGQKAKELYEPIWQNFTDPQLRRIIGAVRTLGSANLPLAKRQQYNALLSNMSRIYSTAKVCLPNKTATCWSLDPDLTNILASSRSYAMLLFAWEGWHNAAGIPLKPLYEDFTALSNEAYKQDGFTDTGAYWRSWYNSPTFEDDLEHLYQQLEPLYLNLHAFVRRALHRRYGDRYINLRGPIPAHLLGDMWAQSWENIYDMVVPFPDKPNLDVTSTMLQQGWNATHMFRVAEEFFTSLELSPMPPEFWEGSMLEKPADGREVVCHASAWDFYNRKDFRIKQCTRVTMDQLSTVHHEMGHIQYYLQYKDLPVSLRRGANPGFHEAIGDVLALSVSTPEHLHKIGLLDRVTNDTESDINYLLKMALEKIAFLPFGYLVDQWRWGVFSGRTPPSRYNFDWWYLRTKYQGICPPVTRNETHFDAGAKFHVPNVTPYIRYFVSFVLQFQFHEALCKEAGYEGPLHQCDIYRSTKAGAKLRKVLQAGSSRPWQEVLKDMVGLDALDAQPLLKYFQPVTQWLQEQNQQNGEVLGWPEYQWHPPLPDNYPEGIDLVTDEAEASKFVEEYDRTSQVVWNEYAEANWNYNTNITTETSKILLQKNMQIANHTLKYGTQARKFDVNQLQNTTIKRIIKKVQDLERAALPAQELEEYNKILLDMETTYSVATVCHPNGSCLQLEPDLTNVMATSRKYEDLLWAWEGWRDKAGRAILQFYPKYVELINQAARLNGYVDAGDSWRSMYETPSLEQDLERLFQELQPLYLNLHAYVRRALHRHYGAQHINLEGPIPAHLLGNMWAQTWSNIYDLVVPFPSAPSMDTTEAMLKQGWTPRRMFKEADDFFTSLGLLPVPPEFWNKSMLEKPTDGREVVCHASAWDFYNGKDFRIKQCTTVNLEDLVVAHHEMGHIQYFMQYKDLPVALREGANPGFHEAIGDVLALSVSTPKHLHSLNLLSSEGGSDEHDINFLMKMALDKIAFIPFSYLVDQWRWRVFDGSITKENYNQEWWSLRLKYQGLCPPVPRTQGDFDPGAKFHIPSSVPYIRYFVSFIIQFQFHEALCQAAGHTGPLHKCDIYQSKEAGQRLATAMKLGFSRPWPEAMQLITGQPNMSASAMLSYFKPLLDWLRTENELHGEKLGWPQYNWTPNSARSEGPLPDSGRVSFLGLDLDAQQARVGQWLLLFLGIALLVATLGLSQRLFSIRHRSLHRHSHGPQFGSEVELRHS

In order of falling inhibition:
1. C=CC(C)(C)c1cc(/C=C/C(=O)c2ccc(O)cc2)c(OC)cc1O  111%
2. O=C(O[C@@H]1Cc2c(O)cc(O)cc2O[C@@H]1c1cc(O)c(O)c(O)c1)c1cc(O)c(O)c(O)c1  82%
3. COc1cc(O)ccc1/C=C/C(=O)c1ccc(O)cc1  72.5%
4. COc1cc(C=O)ccc1O  41.5%
5. COc1ccc(/C=C/c2cc(O)cc(O[C@@H]3O[C@H](CO)[C@@H](O)[C@H](O)[C@H]3O)c2)cc1O  18.2%
6. C[C@@H]1O[C@@H](Oc2cc(O)c3c(=O)c(O)c(-c4ccc(O)cc4)oc3c2O)[C@H](O)[C@H](O)[C@H]1O  17.2%
7. C[C@@H]1CC[C@H]2[C@@H](C)C(=O)O[C@@H]3O[C@@]4(C)CC[C@@H]1[C@]32OO4  17.1%
8. C[C@]1(O)C[C@@H](O)[C@]2(O)C=CO[C@@H](O[C@@H]3O[C@H](CO)[C@@H](O)[C@H](O)[C@H]3O)[C@@H]21  14.8%
9. CC[C@H]1CN2CC[C@]3(C(=O)Nc4ccccc43)[C@@H]2C[C@@H]1/C(=C\OC)C(=O)OC  10%
10. OC[C@H]1O[C@@H](Oc2cc(O)cc(/C=C/c3ccc(O)cc3)c2)[C@H](O)[C@@H](O)[C@@H]1O  8.9%
